“And” between values parts separate entries of the source, which are not always exact repeats. Equal values may be shown once.
Assays:
[1] = tested on: gingipain genes (rgpA, rgpB, kgp); test: Inhibitory effect on gingipain expression of P. gingivalis (RT-qPCR); assay type: cell-based, Porphyromonas gingivalis; details: DPD 10 μM + compound 2 μM; 48 hours; normalized to 16s rRNA
Description: The compounds of Examples were respectively treated onto the medium cultured with P. gingivalis, and the expression levels of three gingipain proteins (lysine-gingipain (Kgp), arginine-gingipain A (RgpA), and arginine-gingipain B (RgpB)) produced by P. gingivalis, which are major virulence factors and proteolytic enzymes, were confirmed.
The culture medium containing 10 μM of DPD (4,5-dihydroxy-2,3-pentane dione), which is a precursor of the bacterial signal substance (Autoinducer-2), and the culture medium containing 2 μM of the example compound or not were respectively dispensed into a cell culture plate (48 well plate), and then P. gingivalis (2×10^8 cell/ml) were inoculated for each group. The culture medium cultured with bacteria was cultured at 37° C. under anaerobic conditions (10% H2, 10% CO2, and 80% N2) for 48 hours.
After 48 hours, each culture medium was centrifuged at 13,000 rpm for 1 minute to remove the supernatant, and total RNA was extracted using easy-BLUE™ Total RNA Extraction kit (iNtRON Biotechnology, Sungnam, Korea) to synthesize cDNA, and then the expression of the gingipain gene was confirmed by real-time PCR method. cDNA was synthesized using AccuPower® CycleScript RT PreMix dN6 (Bioneer, Daejeon, Korea), and real-time (quantitative) reverse transcription PCR (RT-qPCR) was carried out using Power SYBR™ Green PCR Master Mix (Applied Biosystems, Foster City, CA, USA).
RT-qPCR amplification conditions were as follows: after enzyme activation at 95° C. for 3 minutes, denaturation at 95° C. for 10 seconds and primer annealing at 60° C. for 30 seconds were repeated 40 times, and analysis was performed using a Bio-Rad CFX Connect Real-Time PCR Detection System (Bio-Rad, Hercules, CA, USA). To normalize the expression level of the gingipain gene, the 16s rRNA gene was used, and the gene expression level was calculated using the Comparative Ct Method (ΔΔCt), which is shown in FIGS. 5a to 5c.

A. baumannii = test: Inhibitory effect on biofilm formation in A. baumannii; assay type: cell-based, Acinetobacter baumannii; details: 0.006, 0.06, 0.6 μg/ml; 48 hours; compared with control (CT)
Description: The inhibitory effect of the compound of Example 1-2 on biofilm formation in P. aeruginosa (available from the Korean Collection for Oral Microbiology (KCOM)) and A. baumannii (available from the Korea Culture Center of Microorganisms (KCCM)) was confirmed.
Sterilized cover glass slips (round, 12 mm radius) were placed individually at a bottom of each well of a cell culture plate (24-well plate) using forceps, and the compound of Example 1-2 was diluted in the medium (P. aeruginosa: LB medium, A. baumannii: NB medium) cultured with bacteria so that the final concentrations were 0.006 μg/ml, 0.06 μg/ml, and 0.6 μg/ml.
The prepared culture medium was dispensed into a cell culture plate in which glass slips were placed, and the respective bacteria were inoculated to a concentration of 2×10^7 cells/ml. […]
The biofilm in which bacteria cultured for each group were formed on glass slips was stained with 1% crystal violet solution for 15 minutes, and then washed three times with PBS (phosphate buffered saline) solution, and decolorized with acetone-alcohol (20:80, vol/vol). After the decolorizing solution containing crystal violet was put in 200 μl increments in a 96-well microplate for each group, the absorbance (OD590nm) was measured using an absorbance microplate reader (Epoch2, Bio-Tek, USA), and the biofilm formation level was compared.

[2] = tested on: Sprague-Dawley rat bone marrow cells; test: Rat micronucleus test; details: rat, in vivo
Description: Hair was removed from the administration site (subcutaneous) of the SD rats, the administration concentration of the example compounds were set to a low dose (500 mg/kg/day), a medium dose (1000 mg/kg/day), and a high dose (2000 mg/kg/day), and administered subcutaneously to the left and right […] of the test system (10 ml/kg/day each), and the compound was administered subcutaneously in divided doses to the left and right […] of the test system (10 ml/kg/day each).
24 hours after the second administration of the test substance, the femur was removed from each group to collect bone marrow cells. 0.5 mL of 10% neutral formalin was added to the bone marrow cell suspension, fixed for 5 minutes, centrifuged for 5 minutes (4° C., 1,000 rpm, Micro17TR, Hanil Science Industrial, Republic of Korea) to remove the supernatant. Then, 0.3 mL of 10% neutral formalin was added to the precipitated bone marrow cells, suspended, filtered through a cell strain, and transferred to a storage tube. The fixed bone marrow cell suspension was dropped onto a cover glass, and then covered with a slide glass coated with 20 μL of 0.05% acridine orange to prepare an observation slide. The observation slide was observed under a microscope (600× magnification, BX51, Olympus, Japan).
As an indicator of bone marrow cell proliferation inhibition, 500 total red blood cells per individual were observed, and the ratio of polychromatic red blood cells to total red blood cells (PCE/(PCE+NCE)) was calculated. As a positive control, cyclophosphamide (Cas No: 50-18-0) was administered at a dose of 20 mg/kg/day.

[3] = General symptoms and body weight in the rat micronucleus study; assay type: in vivo
Description: In addition, body weight was measured on the day of administration start and bone marrow collection to confirm presence/absence of changes due to administration of the substance, and the results are shown in Table 4 below.

Q: With `Cc1ccc(C(=C2c3ccccc3C(=O)N2C)c2ccc(C)cc2)cc1` [Example 1-2, 3-(di-p-tolylmethylene)-2-methylisoindolin-1-one] as the compound, how does the “expression levels of three gingipain genes (rgpA, rgpB, kgp) increased by DPD” value [1] read?
A: reduced

Q: And the “biofilm formation of A. baumannii” value (A. baumannii)?
A: significantly suppressed in a concentration-dependent manner

Q: And the “ratio of polychromatic red blood cells to the total number of red blood cells, relative to negative control” value ([2]; Sprague-Dawley, 24 h)?
A: ≥ 20 % of the negative control

Q: What about the “appearance frequency of micronucleated polychromatic erythrocytes (MNPCE/PCE) compared to the negative control” value [2] of the same compound?
A: did not show a statistically significant difference

Q: And the “Body weight (g) before 1st dosing” value ([3]; 500 mg/kg/day S.C., individual animals 1201-1205)?
A: 263.4 g

Q: And the “Body weight (g) before 1st dosing” value ([3]; 1,000 mg/kg/day S.C., individual animals 1301-1305)?
A: 266.3 g and 251.3 g and 272.4 g

Q: And the “Body weight (g) before 1st dosing, Mean” value ([3]; 2,000 mg/kg/day S.C., group mean)?
A: 266.9 g

Q: What about the “Body weight (g) before 1st dosing” value ([3]; 2,000 mg/kg/day S.C., individual animals 1401-1405) of the same compound?
A: 266.2 g

Q: And the “change in body weight compared to the negative control” value ([3]; all doses (500, 1000, 2000 mg/kg/day S.C.))?
A: did not show a statistically significant change

Q: And the “clinical signs in rats” value ([3]; all doses (500, 1000, 2000 mg/kg/day S.C.), observation period)?
A: no abnormal clinical signs
